Converted amounts (≈) assume the structure as drawn. Like-named read-outs stand apart in the source and are kept apart here.
Assays:
[1] = molecular target: human recombinant TAK1-TAB1 Kinase (TAK1 (1-303) and TAB1 (437-end)) (Homo sapiens (Human), UniProt O43318); test: TAK1 biochemical ADP-Glo kinase assay; conditions: MBP substrate
Procedure, shortened: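 Inhibition of human recombinant TAK1-TAB1 kinase was measured with a Promega ADP-Glo luminescence assay in 384-well plates. Compounds in 5% DMSO were pre-incubated 10 min with 2 μl TAK1-TAB1 (7.5 ng/μl) in buffer of Tris pH 7.5, MgCl2, DTT and BSA. MBP substrate and ATP were then added for 1 hour at room temperature. ADP-Glo reagent and kinase detection substrate followed, luminescence was read on an Envision, and IC50 came from non-linear regression.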

[2] = pH 7.4
Protocol: (§1) The aqueous solubility of selected example compounds was determined as follows; 6 μL of DMSO stock solution of the selected example was added to 594 μL phosphate buffer (100 mM, pH 7.4). The resulting mixture was equilibrated over night (20-24 h, Alligator Shaker, room temperature). The mixture was then filtered (Millex LH 0.45 μm) and the concentration/solubility was determined by LC-UV quantification.

[3] = amide bond, 14-membered ring
[4] = Solubility assay in phosphate buffer; conditions: phosphate buffer, pH 7.4, aqueous buffer, kinetic from dmso stock, Solubility (μM), phosphate buffer 100 mM, pH 7.4, room temperature, 20-24 h, LC-UV
Protocol: as §1

[5] = test system: phosphorylated p38 (TAK1 activity) in THP-1 cells; test: Cell-based p38 phosphorylation assay (Western blot); conditions: for IC50: read-out: IC50 (nM) in phospho-p38 cell assay
Protocol: The cellular activity of example compounds 2, 3 and 9 and the comparative example (i.e. takinib) for inhibiting TAK1 activity was evaluated using an in vitro functional cell assay.
THP-1 cells were incubated at 37° C. in 5% CO2. THP-1 cells were cultured in RPMI 1640, 10% FBS, 1% Penicillin-Streptomycin.
THP-1 cells were treated with 100 nM phorbol 12-myristate 13-acetate (PMA) to induce macrophage differentiation and seeded at the density of 1×10^6 cells/well (2 ml/well in a 6-well plate) for 72 hours. The cell culture media was then replaced with PMA-free media and incubated for further 48 hours. Test compounds were prepared as 200×final assay concentration stocks in DMSO (final concentrations in the assay were 10-0.03 μM in 0.5% DMSO, details provided below). Following THP-1 cell differentiation, cells were treated with different concentrations of the control compound NG25 (CAS No.:1315355-93-1, Tan L, et al. J Med Chem. 2015, 58(1), 183-96) or test compounds (10 μl/well) for 30 minutes followed by 200 ng/ml LPS for 30 minutes.
Test items were kept as 10 mM stock solutions in 100% DMSO. The serial dilution of compounds was prepared as 200× serial dilutions of desired final concentration in […] to reach 0.5% DMSO working solution (see Table 3 below).
Dilution series of compounds from 10 μM final highest concentration to 0.03 μM final low concentration were first made in DMSO (see Table 3), 10 μl of each dilution was mixed into 2 ml of cell cultures (0.5% DMSO per well).
10 μl of DMSO was added to the control. All plates were incubated at 37° C., 5% CO2 for 30 minutes and LPS was added to a final concentration of 200 ng/ml.
For Western blot analysis, cells were lysed (50 mM Tris, 150 mM NaCl, 1 mM EDTA, 1% Triton-X100, 1 mM DTT, complete protease and PhosStop phosphatase inhibitor) after indicated treatment and run on NuPAGE Bis-Tris gel 4-12% gradient (Invitrogen). Following transfer to PVDF membrane and blocking in 5% BSA in PBST, membranes were incubated with primary antibody overnight (specific for phosphorylated p38; Cell Signaling, 1:1,000 dilution). After incubation with species-specific secondary antibodies for 1 hour at room temperature, the membranes were visualized with the ECL SuperSignal™ West Pico PLUS Chemiluminescent Substrate (Thermo Scientific). The images were captured with iBright Western Blot Imaging Systems (Invitrogen) and quantified with ImageJ software (Java-based image processing program developed at the National Institutes of Health and the Laboratory for Optical and Computational Instrumentation). Anti-β-actin antibodies were used as the loading control for whole-cell extracts in all samples (anti-β actin; Sigma-Aldrich, 1:5000 dilution, 1 hour incubation).
For immunoblotting, cells were lysed directly in six-well plates by incubating for 30 min at 4° C. in 60 μl Triton lysis buffer. The lysates were centrifuged for 15 minutes at 13,000×g at 4° C. Equal amount of protein from each supernatants were resuspended with 5× sample buffer. Samples were boiled for 10 minutes and then resolved by 4-12% SDS-PAGE (100 V). Proteins were transferred from gel to PVDF membranes ([…] pore size) following the recommended setting (90 minutes, 85 V). […]

[6] = from COC(=O)c1cccc2nc(NC(=O)c3cccc(C(=O)O)c3)n(CCCCCN)c12; amide bond; 14-membered ring; HATU/DIEA; 16.0 h; 2 steps
[7] = 10 μM ATP, read-out: TAK1 Mean IC50 (nM) @ 10 μM ATP
[8] = Homo sapiens, 0.5 h, PMA-differentiated THP-1 cells, compound 30 minutes then 200 ng/ml LPS 30 minutes
[9] = PMA-differentiated THP-1 cells, compound 30 minutes then 200 ng/ml LPS 30 minutes

Chain of human recombinant TAK1-TAB1 Kinase (TAK1 (1-303) and TAB1 (437-end)) (O43318 other isoform, or with tags, fused parts or gaps): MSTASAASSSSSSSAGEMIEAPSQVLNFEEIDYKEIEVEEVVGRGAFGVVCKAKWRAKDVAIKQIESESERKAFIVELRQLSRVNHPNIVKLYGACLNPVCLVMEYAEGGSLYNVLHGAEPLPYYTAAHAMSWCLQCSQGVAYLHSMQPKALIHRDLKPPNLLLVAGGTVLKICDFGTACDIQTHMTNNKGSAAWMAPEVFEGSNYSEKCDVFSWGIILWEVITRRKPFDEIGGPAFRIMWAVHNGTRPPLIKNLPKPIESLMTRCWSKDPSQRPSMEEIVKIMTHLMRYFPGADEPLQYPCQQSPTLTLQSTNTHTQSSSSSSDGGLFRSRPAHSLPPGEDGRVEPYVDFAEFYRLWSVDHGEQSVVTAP

SMILES | IC50 [1, 7] | solubility [2] | solubility [4] | other results
COC(=O)c1cccc2nc3n(c12)C(C)CCCCNC(=O)c1cccc(c1)C(=O)N3 (stereo not shown) [Example 7, methyl 11-methyl-3,5-dioxo-1^1H-2,6-diaza-1(2,1)-benzo[d]imidazola-4(1,3)-benzenacycloundecaphane-1^7-carboxylate] | 4 nM | 0.9 µM (≈ 0.378 µg/mL) |  | ring closure, isolated yield ([3]; from COC(=O)c1cccc2nc(NC(=O)c3cccc(C(=O)O)c3)n(C(C)CCCCN)c12, HATU/TEA, dioxane, 2.2 mM, 25.0 °C, 16.0 h, 2 steps): 21%
O=C1NCCCCCn2c(nc3ccccc32)NC(=O)c2cccc1c2 [Example 2, 1^1H-2,6-diaza-1(2,1)-benzo[d]imidazola-4(1,3)-benzenacycloundecaphane-3,5-dione] | 3 nM |  | 0.5 µM (≈ 0.174 µg/mL) | IC50 [5, 8]: 200 nM; ring closure, isolated yield ([3]; from NCCCCCn1c(NC(=O)c2cccc(C(=O)O)c2)nc2ccccc21, HATU/DIEA, DMF, 51.0 mM, 25.0 °C, 16.0 h): 2%
CC1CCCCNC(=O)c2cccc(c2)C(=O)Nc2nc3cccc(C(=O)N4CCN(C(=O)OC(C)(C)C)CC4)c3n21 (stereo not shown) [Example 9, tert-butyl 4-(11-methyl-3,5-dioxo-1^1H-2,6-diaza-1(2,1)-benzo[d]imidazola-4(1,3)-benzenacycloundecaphane-1^7-carbonyl)piperazine-1-carboxylate] | 1 nM | 30.9 µM (≈ 17.8 µg/mL) |  | IC50 [5, 9]: 600 nM; potency and efficacy compared with Comparative Example 1 (takinib) ([5]; THP-1 cells, LPS, phospho-p38): greater
O=C1NCCCCCn2c(nc3cccc(C(=O)O)c32)NC(=O)c2cccc1c2 [Example 18, (E)-3,5-dioxo-1^2,1^3-dihydro-1^1H-2,6-diaza-1(2,1)-benzo[d]imidazola-4(1,3)-benzenacycloundecaphane-1^7-carboxylic acid] | 9 nM | 95.0 µM (≈ 37.3 µg/mL) |  | 
CCCn1c(NC(=O)c2cccc(C(N)=O)c2)nc2ccccc21 [takinib, N-(1-propyl-1H-benzo[d]imidazol-2-yl)isophthalamide, reference compound] | 17 nM |  | 0.9 µM (≈ 0.29 µg/mL) | IC50 ([1]; 1 mM ATP, read-out: TAK1 Mean IC50 (nM) @ 1 mM ATP): 280 nM; IC50 (nM) in phospho-p38 cell assay [5, 9]: inactive
COC(=O)c1cccc2nc3n(c12)CCCCCNC(=O)c1cccc(c1)C(=O)N3 |  |  |  | ring closure, crude yield [6]: 76%
CN1CCN(Cc2ccc3c(c2)nc2n3CCCCCNC(=O)c3cccc(c3)C(=O)N2)CC1 [Example 3, 1^5-((4-methylpiperazin-1-yl)methyl)-1^1H-2,6-diaza-1(2,1)-benzo[d]imidazola-4(1,3)-benzenacycloundecaphane-3,5-dione] | 1 nM |  | 31.5 µM (≈ 14.5 µg/mL) | IC50 [5, 8]: 4.5 nM; ring closure, isolated yield ([3]; from CN1CCN(Cc2ccc3c(c2)nc(NC(=O)c2cccc(C(=O)O)c2)n3CCCCCN)CC1, HATU/DIEA, DMF, 2.4 mM, 1.17 h): 13%
